{"source": "patent US4122184A", "about": "“Benzimidazole insecticides” (priority 1977, dated 1978)", "key": {"Mexican Bean Beetle": {"test_system": "Mexican Bean Beetle", "test": "Field trial (first summer), topical", "format": "in vivo, Epilachna varivestis", "details": ".25 μg/μl", "experimental": "In a variation of the above test, 1 microliter of a test solution containing a predetermined number of micrograms of benzimidazole was applied directly to larvae or adult insects.\n(§1) During the previous summer similar field trials were conducted employing the same tests as heretofore but with some additional species of insects not included in the later tests. The results listed below are for tests in which an insect mortality was established by a given application route and at a given concentration in a particular test. The same 0 - 9 scoring system is used as is the designation of compounds by alphabetical symbols."}, "Armyworm, P. Unipuncta [1]": {"test_system": "Armyworm, P. Unipuncta", "test": "Field trial, stomach poison test", "format": "in vivo", "in_short": "(§2)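 Treated foliage (dipped, or sprayed at 10 psi, then dried) is offered to counted insects in dishes. Scoring of mortality uses a 0–9 scale at three time points up to 72 h.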"}, "Eastern Tent Caterpillar [2]": {"test_system": "Eastern Tent Caterpillar", "test": "Field trial, stomach poison test", "format": "in vivo", "in_short": "as §2"}, "Walnut Caterpillar [3]": {"test_system": "Walnut Caterpillar", "test": "Field trial, stomach poison test", "format": "in vivo", "in_short": "as §2"}, "Bagworms": {"test_system": "Bagworms", "test": "Field trial, stomach poison test", "format": "in vivo", "in_short": "as §2"}, "Elm Leaf Beetle [4]": {"test_system": "Elm Leaf Beetle", "test": "Field trial, stomach poison test", "format": "in vivo", "in_short": "as §2"}, "[5]": {"test_system": "Red-Legged Grasshopper Adults", "test": "Field trial, stomach poison test", "format": "in vivo", "in_short": "as §2"}, "Picnic Beetle": {"test_system": "Picnic Beetle", "test": "Field trial (first summer), stomach", "format": "in vivo", "details": "250 ppm", "experimental": "Leaves from the infested plant are treated with different concentrations of the test compounds, either by spraying with a DeVilbiss Special Atomizer (5004) at 10 psi or by dipping the leaves in solutions containing the compound. The leaves are then allowed to air dry.\nAfter the leaves have dryed, they are placed in plastic petri dishes (100 × 25 mm), then the insects are counted out into each dish, five or ten insects per dish depending on the number of insects available. There are one or two replicates and usually two or three rates with each compound. Mortality results are taken at 24, 48 and 72 hours. The rating scale is 0 to 9.\nas §1"}, "Differential Grasshopper": {"test_system": "Differential Grasshopper", "test": "Field trial (first summer), contact", "format": "in vivo", "details": "125 ppm"}, "Meadow Grasshopper": {"test_system": "Meadow Grasshopper", "test": "Field trial (first summer), contact", "format": "in vivo", "details": "125 ppm"}, "[6]": {"test_system": "Unidentified Green Leafhopper", "test": "Field trial, stomach poison test", "format": "in vivo", "parameters": "key: mortality rating on a 0 to 9 scale", "in_short": "as §2"}, "[7]": {"test_system": "Tarnished Plant Bug Adults", "test": "Field trial, stomach poison test", "format": "in vivo", "parameters": "key: mortality rating on a 0 to 9 scale", "in_short": "as §2"}, "Eastern Tent Caterpillar [8]": {"test_system": "Eastern Tent Caterpillar", "test": "Field trial, topical application", "format": "in vivo", "in_short": "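1 μL benzimidazole solution of set microgram content applied topically to larvae or adults. Mortality read at 24, 48 and 72 h where applicable, rated 0-9 (0 = 0-10%, 9 = 91-100%); values are average mortality per concentration.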"}, "Armyworm, P. Unipuncta [9]": {"test_system": "Armyworm, P. Unipuncta", "test": "Field trial, contact poison test", "format": "in vivo", "in_short": "(§3)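 Each infested plant sits in a water-filled bottle to prevent wilting, and the test compound is then atomized onto it at 10 psi at various concentrations. Falling dead insects are collected, and mortality is rated 0 (0-10%) to 9 (91-100%) at up to 72 h.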"}, "Alfalfa Weevil Larvae": {"test_system": "Alfalfa Weevil Larvae", "test": "Field trial, contact poison test", "format": "in vivo", "in_short": "as §3"}, "Eastern Tent Caterpillar [10]": {"test_system": "Eastern Tent Caterpillar", "test": "Field trial, contact poison test", "format": "in vivo", "in_short": "as §3"}, "Walnut Caterpillar [11]": {"test_system": "Walnut Caterpillar", "test": "Field trial, contact poison test", "format": "in vivo", "in_short": "as §3"}, "Elm Leaf Beetle [12]": {"test_system": "Elm Leaf Beetle", "test": "Field trial, contact poison test", "format": "in vivo", "in_short": "as §3"}, "[13]": {"test_system": "Potato Flea Beetle Adults", "test": "Field trial, contact poison test", "format": "in vivo", "in_short": "as §3"}}, "data": [{"smiles": "O=[N+]([O-])c1cc(C(F)(F)F)cc2nc(C(F)(F)F)[nH]c12", "note": "[A, 2,6-bis(trifluoromethyl)-4-nitrobenzimidazole]", "values": [{"measurement": "insect mortality rating", "setting": "Mexican Bean Beetle", "result": "9 (91-100 percent mortality)"}, {"measurement": "average mortality rating", "setting": "Armyworm, P. Unipuncta [1]; 125 ppm", "result": "9 (91-100 percent mortality)"}, {"measurement": "average mortality rating", "setting": "Armyworm, P. Unipuncta [1]; 250 ppm", "result": "9 (91-100 percent mortality)"}, {"measurement": "average mortality rating", "setting": "Armyworm, P. Unipuncta [1]; 500 ppm", "result": "9 (91-100 percent mortality)"}, {"measurement": "average mortality rating", "setting": "Eastern Tent Caterpillar [2]; 250 ppm", "result": "0 (0-10 percent)"}, {"measurement": "average mortality rating", "setting": "Eastern Tent Caterpillar [2]; 500 ppm", "result": "0 (0-10 percent)"}, {"measurement": "average mortality rating", "setting": "Eastern Tent Caterpillar [2]; 1000 ppm", "result": "0 (0-10 percent)"}, {"measurement": "average mortality rating", "setting": "Walnut Caterpillar [3]; 50 ppm", "result": 1}, {"measurement": "average mortality rating", "setting": "Walnut Caterpillar [3]; 100 ppm", "result": 3}, {"measurement": "average mortality rating", "setting": "Walnut Caterpillar [3]; 250 ppm", "result": 3}, {"measurement": "average mortality rating", "setting": "Bagworms; 500 ppm", "result": 1}, {"measurement": "average mortality rating", "setting": "Bagworms; 750 ppm", "result": "0 (0-10 percent)"}, {"measurement": "average mortality rating", "setting": "Bagworms; 1000 ppm", "result": "0 (0-10 percent)"}, {"measurement": "average mortality rating", "setting": "Bagworms; 1500 ppm", "result": 1}, {"measurement": "average mortality rating", "setting": "Bagworms; 2500 ppm", "result": "0 (0-10 percent)"}, {"measurement": "average mortality rating", "setting": "Bagworms; 5000 ppm", "result": 1}, {"measurement": "average mortality rating", "setting": "Elm Leaf Beetle [4]; 125 ppm", "result": 3}, {"measurement": "average mortality rating", "setting": "Elm Leaf Beetle [4]; 250 ppm", "result": "0 (0-10 percent)"}, {"measurement": "average mortality rating", "setting": "Elm Leaf Beetle [4]; 500 ppm", "result": 5}, {"measurement": "average mortality rating", "setting": "[5]; 10 ppm", "result": "0 (0-10 percent)"}, {"measurement": "average mortality rating", "setting": "[5]; 25 ppm", "result": 4}, {"measurement": "average mortality rating", "setting": "[5]; 50 ppm", "result": 6}, {"measurement": "insect mortality rating", "setting": "Picnic Beetle", "result": "9 (91-100 percent mortality)"}, {"measurement": "insect mortality rating", "setting": "Differential Grasshopper", "result": "9 (91-100 percent mortality)"}, {"measurement": "insect mortality rating", "setting": "Meadow Grasshopper", "result": "9 (91-100 percent mortality)"}, {"measurement": "average mortality rating", "setting": "[6]; 10 ppm", "result": 4}, {"measurement": "average mortality rating", "setting": "[6]; 25 ppm", "result": 2}, {"measurement": "average mortality rating", "setting": "[6]; 50 ppm", "result": 6}, {"measurement": "average mortality rating", "setting": "[7]; 10 ppm", "result": 3}, {"measurement": "average mortality rating", "setting": "[7]; 25 ppm", "result": 1}, {"measurement": "average mortality rating", "setting": "[7]; 50 ppm", "result": 2}, {"measurement": "average mortality rating", "setting": "Eastern Tent Caterpillar [8]; 0.3 μg/μl", "result": 3}, {"measurement": "average mortality rating", "setting": "Eastern Tent Caterpillar [8]; 0.6 μg/μl", "result": 1}, {"measurement": "average mortality rating", "setting": "Eastern Tent Caterpillar [8]; 1.2 μg/μl", "result": 3}, {"measurement": "average mortality rating", "setting": "Armyworm, P. Unipuncta [9]; 125 ppm", "result": "0 (0-10 percent)"}, {"measurement": "average mortality rating", "setting": "Armyworm, P. Unipuncta [9]; 250 ppm", "result": 1}, {"measurement": "average mortality rating", "setting": "Armyworm, P. Unipuncta [9]; 500 ppm", "result": 3}, {"measurement": "average mortality rating", "setting": "Alfalfa Weevil Larvae; 500 ppm", "result": 3}, {"measurement": "average mortality rating", "setting": "Alfalfa Weevil Larvae; 750 ppm", "result": 3}, {"measurement": "average mortality rating", "setting": "Alfalfa Weevil Larvae; 1000 ppm", "result": 5}, {"measurement": "average mortality rating", "setting": "Eastern Tent Caterpillar [10]; 50 ppm", "result": "0 (0-10 percent)"}, {"measurement": "average mortality rating", "setting": "Eastern Tent Caterpillar [10]; 100 ppm", "result": 3}, {"measurement": "average mortality rating", "setting": "Eastern Tent Caterpillar [10]; 250 ppm", "result": 5}, {"measurement": "average mortality rating", "setting": "Eastern Tent Caterpillar [10]; 500 ppm", "result": 5}, {"measurement": "average mortality rating", "setting": "Walnut Caterpillar [11]; 25 ppm", "result": 1}, {"measurement": "average mortality rating", "setting": "Walnut Caterpillar [11]; 50 ppm", "result": 1}, {"measurement": "average mortality rating", "setting": "Walnut Caterpillar [11]; 100 ppm", "result": 1}, {"measurement": "average mortality rating", "setting": "Walnut Caterpillar [11]; 250 ppm", "result": 7}, {"measurement": "average mortality rating", "setting": "Elm Leaf Beetle [12]; 250 ppm", "result": "0 (0-10 percent)"}, {"measurement": "average mortality rating", "setting": "Elm Leaf Beetle [12]; 500 ppm", "result": 7}, {"measurement": "average mortality rating", "setting": "Elm Leaf Beetle [12]; 1000 ppm", "result": "9 (91-100 percent mortality)"}, {"measurement": "average mortality rating", "setting": "[13]; 10 ppm", "result": "9 (91-100 percent mortality)"}, {"measurement": "average mortality rating", "setting": "[13]; 25 ppm", "result": "9 (91-100 percent mortality)"}, {"measurement": "average mortality rating", "setting": "[13]; 50 ppm", "result": 8}, {"measurement": "average mortality rating", "setting": "[13]; 100 ppm", "result": 8}, {"measurement": "average mortality rating", "setting": "[13]; 250 ppm", "result": "9 (91-100 percent mortality)"}]}]}
